19 compounds from patent publication US20100240654A1, “HYDRAZIDE DERIVATIVES” (priority 2004, published 2010) can be followed below.

Counter-ions that a name gives are not always drawn.

The term IC50 denotes the concentration at which inhibition is half-maximal. Read a low IC50 as greater potency in that assay.

For assay [1], the target named is T1, human clotting factor VIIa (Homo sapiens, UniProt P08709).
T1 construct: a human clotting factor VIIa (Factor VIIa) purified sample; purchased Enzyme Research Laboratories (Factor VIIa); Calbiochem (tissue factor) HFVIIa (Factor VIIa); 612151 (tissue factor)
T1 sequence (P08709 213-466 limits assumed): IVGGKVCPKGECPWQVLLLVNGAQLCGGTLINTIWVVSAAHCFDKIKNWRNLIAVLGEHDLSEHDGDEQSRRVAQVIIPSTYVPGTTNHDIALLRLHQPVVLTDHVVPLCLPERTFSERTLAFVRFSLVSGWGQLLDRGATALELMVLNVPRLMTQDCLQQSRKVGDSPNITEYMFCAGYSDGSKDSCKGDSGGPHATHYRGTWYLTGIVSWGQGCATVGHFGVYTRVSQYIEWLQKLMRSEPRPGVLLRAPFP
T1 sequence (P08709 61-212 limits assumed): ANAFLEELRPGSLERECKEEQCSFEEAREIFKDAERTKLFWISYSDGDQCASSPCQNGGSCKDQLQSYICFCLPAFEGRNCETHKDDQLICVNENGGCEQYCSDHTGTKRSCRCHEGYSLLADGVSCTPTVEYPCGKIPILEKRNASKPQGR
T1 sequence (P13726 33-295 partner): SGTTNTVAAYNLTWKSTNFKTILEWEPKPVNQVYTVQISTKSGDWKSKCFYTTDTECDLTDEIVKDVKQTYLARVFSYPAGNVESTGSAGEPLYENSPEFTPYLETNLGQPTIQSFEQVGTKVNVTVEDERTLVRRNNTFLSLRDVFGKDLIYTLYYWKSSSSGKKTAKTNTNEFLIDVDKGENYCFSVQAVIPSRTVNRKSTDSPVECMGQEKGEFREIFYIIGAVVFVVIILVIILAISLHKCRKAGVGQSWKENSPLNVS
Put plainly: Inhibitory activity against clotting factor VIIa (chromogenic substrate Spectrozyme FVIIa, with tissue factor). In kind it is biochemical. The following applies: 10 nmol/L TF, 5 nmol/L Factor VIIa, room temperature 40 minutes, 405 nm. As to the method: Dimethylsulfoxide (DMSO) solutions were prepared with compounds of the invention at concentration of 10 mmol/L (10 mmol/L compound solutions).
One packet of tris-hydroxymethylaminomethane-preset (Tris Preset) (product of SIGMA Corp., Catalog No. T8293), 8.8 g of sodium chloride (NaCl) and 1 g of bovine serum albumin (BSA) were dissolved in 1 L of water to prepare a Tris-BSA buffer (100 mmol/L Tris, 0.15 mol/L NaCl, 0.1% BSA, pH 7.4).
The Tris-BSA buffer (180 μL) was added to the aforementioned 10 mmol/L compound solution (20 μL). A 10-fold dilution series was prepared for this mixture using the aforementioned Tris-BSA buffer, and solutions with the compound at concentrations of 1.0 mmol/L, 100, 10, 1, 0.1, 0.01 and 0.001 μmol/L were prepared (1.0 mmol-0.001 μmol/L compound solutions).
As a control, a solution was prepared by 10-fold dilution of DMSO with the Tris-BSA buffer (control 10% solution).
After dissolving one packet of Tris preset, NaCl (8.8 g) and BSA (1 g) in water (about 900 mL), there were added 1 mol/L aqueous calcium chloride (CaCl2) (15 mL) and 1 mg/mL aqueous cephalin (30 mL), and the total volume was brought to 1 L by adding water. To this solution was added a human tissue factor (TF) sample (product of Calbiochem, Catalog No. 612151) (450 μg) to a TF sample concentration of 10 nmol/L, and then a human clotting factor VIIa (Factor VIIa) purified sample (product of Enzyme Research Laboratories, Catalog No. HFVIIa) (250 μg) was added to a Factor VIIa purified sample concentration of 5 nmol/L, to prepare an enzyme solution (100 mmol/L Tris-HCl, 0.15 mol/L NaCl, 15 mmol/L CaCl2, 30 μg/mL cephalin, 1 mg/mL BSA, 10 nmol/L TF, 5 nmol/L Factor VIIa).
To 110 μL of this enzyme solution was added 15 μL of each of the 1.0 mmol-0.001 μmol/L compound solutions, and then 25 μL of a 1.0 mmol/L synthetic chromogenic substrate solution (Spectrozyme FVIIa) was added and the mixture was allowed to stand at room temperature for 40 minutes. Next, the amount of 4-nitroanilide released into the solution was quantitated by spectrophotometry (405 nm).
A control measurement was conducted in the same manner, using the control 10% solution instead of the compound solution.
This measurement yielded the enzyme reaction inhibition in the presence of 100 μmol/L to 0.1 nmol/L of each compound of the invention. The enzyme reaction inhibition at each compound concentration was subjected to non-linear regression analysis, and the IC50 value for inhibitory activity of each compound against clotting factor VIIa was calculated.

The test system of the next assay is healthy human plasma. Put plainly: Blood clotting time prolongation (prothrombin time, steel ball method). The conditions noted are these: human thromboplastin, 37° C.

For the compound `CCOc1cc(C(Nc2ccc(C(=N)N)cc2)C(=O)NNc2ccccn2)ccc1OC(C)C.O=C(O)C(F)(F)F` (centres unmarked) [Example 2, 4-(((3-Ethoxy-4-isopropoxyphenyl)-(N′-pyridin-2-ylhydrazinocarbonyl)methyl)amino)benzamidine trifluoroacetate], in assay [1], the IC50 was determined as 0.096 µM. The “h PT × 1.1: compound concentration which produced 10% prolongation compared to the control clotting time” value in the assay on healthy human plasma came out at 1.00 µM. Compound `CCOc1cc(C(Nc2ccc(C(=N)N)cc2)C(=O)NNc2ccccc2C(=O)O)ccc1OC(C)C.O=C(O)C(F)(F)F` (centres unmarked) [Example 3, 2-(N′-(2-(4-Carbamimidoylphenylamino)-2-(3-ethoxy-4-isopropoxyphenyl)acetyl)hydrazino)benzoic acid trifluoroacetate] showed an IC50 in assay [1] of 0.051 µM. Also, in the assay on healthy human plasma, the “h PT × 1.1: compound concentration which produced 10% prolongation compared to the control clotting time” value came to 1.00 µM. The matching figures for `CCOc1cc(C(Nc2ccc(C(=N)N)cc2)C(=O)NNS(=O)(=O)c2ccc(NC(C)=O)cc2)ccc1OC(C)C.O=C(O)C(F)(F)F` (centres unmarked) [Example 9, N-(4-(2-(2-(4-Carbamimidoylphenylamino)-2-(3-ethoxy-4-isopropoxyphenyl)acetyl)hydrazinosulfonyl)phenyl)acetamide trifluoroacetate]: 0.316 µM and 1.30 µM. Compound `CCOc1cc(C(Nc2ccc(C(=N)N)cc2)C(=O)NNS(=O)(=O)c2ccccc2S(C)(=O)=O)ccc1OC(C)C.O=C(O)C(F)(F)F` (centres unmarked) [Example 10, 4-(1-(3-Ethoxy-4-isopropoxyphenyl)-2-(2-(2-methanesulfonyl)phenylsulfonyl)hydrazino)-2-oxoethylamino)benzamidine trifluoroacetate] registered an IC50 in assay [1] of 0.233 µM.

For `CCOc1cc(C(Nc2ccc(C(=N)N)cc2)C(=O)NNS(=O)(=O)c2ccccc2S(C)(=O)=O)ccc1OC(C)C.O=C(O)C(F)(F)F` (centres unmarked) [Example 10], the “h PT × 1.1: compound concentration which produced 10% prolongation compared to the control clotting time” value with healthy human plasma turned out to be 1.20 µM.

`COc1cc(F)c(C(Nc2ccc(C(=N)N)cc2)C(=O)NNC(=O)c2ccccc2Cl)cc1OC.O=C(O)C(F)(F)F` (centres unmarked) [Example 23, 4-(2-(N′-(2-Chlorobenzoyl)hydrazino)-1-(2-fluoro-4,5-dimethoxyphenyl)-2-oxoethylamino)benzamidine trifluoroacetate] came in with an IC50 in assay [1] of 0.255 µM. In addition, the “h PT × 1.1: compound concentration which produced 10% prolongation compared to the control clotting time” value in the assay on healthy human plasma amounted to 1.20 µM. The corresponding values for `CCOc1cc(C(Nc2ccc(C(=N)N)cc2)C(=O)NNC(=O)c2cnccc2Cl)ccc1OC(C)C.O=C(O)C(F)(F)F` (centres unmarked) [Example 25, 4-(2-(N′-(4-Chloropyridine-3-carbonyl)hydrazino)-1-(3-ethoxy-4-isopropoxyphenyl)-2-oxoethylamino)benzamidine trifluoroacetate] are 0.084 µM and 1.20 µM.

`CCOc1cc(C(Nc2ccc(C(=N)N)cc2)C(=O)NNC(=O)c2cnccc2C)ccc1OC(C)C.O=C(O)C(F)(F)F` (centres unmarked) [Example 27, 4-(1-(3-Ethoxy-4-isopropoxyphenyl)-2-(N′-(4-methylpyridine-3-carbonyl)hydrazino)-2-oxoethylamino)benzamidine trifluoroacetate]: the IC50 in assay [1] is 0.069 µM. Moreover, the “h PT × 1.1: compound concentration which produced 10% prolongation compared to the control clotting time” value in the assay with healthy human plasma is 0.74 µM.

In assay [1], `CCOc1cc(C(Nc2ccc(C(=N)N)cc2)C(=O)NNC(=O)c2ccccc2[N+](=O)[O-])ccc1OC(C)C.O=C(O)C(F)(F)F` (centres unmarked) [Example 32, 4-(1-(3-Ethoxy-4-isopropoxyphenyl)-2-(N′-(2-nitrobenzoyl)hydrazino)-2-oxoethylamino)benzamidine trifluoroacetate] returned an IC50 of 0.11 µM. The “h PT × 1.1: compound concentration which produced 10% prolongation compared to the control clotting time” value in the assay on healthy human plasma was 0.80 µM.

Compound `CCOc1cc(C(Nc2ccc(C(=N)N)cc2)C(=O)NNC(=O)c2ccncc2Cl)ccc1OC(C)C.O=C(O)C(F)(F)F` (centres unmarked) [Example 33, 4-(2-(N′-(3-Chloropyridine-4-carbonyl)hydrazino)-1-(3-ethoxy-4-isopropoxyphenyl)-2-oxoethylamino)benzamidine trifluoroacetate] showed an IC50 in assay [1] of 0.057 µM. In addition, in the assay with healthy human plasma, the “h PT × 1.1: compound concentration which produced 10% prolongation compared to the control clotting time” value came to 1.10 µM. The corresponding values for `CCOc1cc(C(Nc2ccc(C(=N)N)cc2)C(=O)NNC(=O)c2ccncc2Br)ccc1OC(C)C.O=C(O)C(F)(F)F` (centres unmarked) [Example 34, 4-(2-(N′-(3-Bromopyridine-4-carbonyl)hydrazino)-1-(3-ethoxy-4-isopropoxyphenyl)-2-oxoethylamino)benzamidine trifluoroacetate] are 0.063 µM and 1.40 µM. The matching figures for `CCOc1cc(C(Nc2ccc(C(=N)N)cc2)C(=O)NNC(=O)c2ccncc2F)ccc1OCCN(C)C.O=C(O)C(F)(F)F` (centres unmarked) [Example 53, 4-(1-(4-(2-Dimethylaminoethoxy)-3-ethoxyphenyl)-2-oxo-2-(N′-(3-fluoropyridine-4-carbonyl)hydrazino)ethylamino)benzamidine trifluoroacetate]: 0.164 µM and 0.65 µM. In the case of `CCOc1cc(C(Nc2ccc(C(=N)N)cc2)C(=O)NNc2ccccc2OC)ccc1OCCN(C)C.O=C(O)C(F)(F)F` (centres unmarked) [Example 56, 4-(((4-(2-Dimethylaminoethoxy)-3-ethoxyphenyl)-(N′-(2-methoxyphenyl)hydrazinocarbonyl)methyl)amino)benzamidine trifluoroacetate], the IC50 in assay [1] is 0.198 µM. The “h PT × 1.1: compound concentration which produced 10% prolongation compared to the control clotting time” value in the assay on healthy human plasma came to 0.41 µM. The matching figures for `CCOc1cc(C(Nc2ccc(C(=N)N)cc2)C(=O)NNC(=O)c2ccncc2F)ccc1OCC(=O)N(C)C.O=C(O)C(F)(F)F` (centres unmarked) [Example 60, 2-(4-(1-(4-Carbamimidoylphenylamino)-2-(N′-(3-fluoropyridine-4-carbonyl)-hydrazino)-2-oxoethyl)-2-ethoxyphenoxy)-N,N-dimethyl-acetamide trifluoroacetate]: 0.203 µM and 0.30 µM. The corresponding values for `CCOc1cc(C(Nc2ccc(C(=N)N)cc2)C(=O)NNC(=O)c2ccncc2Cl)ccc1OCC(=O)N(C)C.O=C(O)C(F)(F)F` (centres unmarked) [Example 61, 2-(4-(1-(4-Carbamimidoylphenylamino)-2-(N′-(3-chloropyridine-4-carbonyl)hydrazino)-2-oxoethyl)-2-ethoxyphenoxy)-N,N-dimethylacetamide trifluoroacetate] are 0.184 µM and 0.41 µM. Turning to `COc1cc(F)c(C(Nc2ccc(C(=N)N)cc2)C(=O)NNC(=O)c2ccccc2Br)cc1OC.O=C(O)C(F)(F)F` (centres unmarked) [Example 72, 4-(2-(N’-(2-Bromobenzoyl)hydrazino)-1-(2-fluoro-4,5-dimethoxyphenyl)-2-oxoethylamino)benzamidine trifluoroacetate], in assay [1], the IC50 was 0.259 µM. Moreover, in the assay with healthy human plasma, the “h PT × 1.1: compound concentration which produced 10% prolongation compared to the control clotting time” value is 1.20 µM. The corresponding values for `CCOc1cc(C(Nc2ccc(C(=N)N)cc2)C(=O)NNC(=O)c2cnccc2C)ccc1OCCOC.O=C(O)C(F)(F)F` (centres unmarked) [Example 76, 4-(1-(3-Ethoxy-4-(2-methoxyethoxy)phenyl)-2-(N′-(4-methylpyridine-3-carbonyl)hydrazino)-2-oxoethylamino)benzamidine trifluoroacetate] are 0.169 µM and 0.63 µM. The matching figures for `CCOc1cc(C(Nc2ccc(C(=N)N)cc2)C(=O)NNC(=O)c2ccncc2Cl)ccc1OCCOC.O=C(O)C(F)(F)F` (centres unmarked) [Example 78, 4-(2-(N′-(3-Chloropyridine-4-carbonyl)hydrazino)-1-(3-ethoxy-4-(2-methoxyethoxy)phenyl)-2-oxoethylamino)benzamidine trifluoroacetate]: 0.049 µM and 0.42 µM. As to `CCOc1cc(C(Nc2ccc(C(=N)N)cc2)C(=O)NNC(=O)c2ccccc2Cl)ccc1OCC(C)(C)N` (centres unmarked) [Example X-247, 4-[1-[4-(2-Amino-2-methylpropoxy)-3-ethoxyphenyl]-2-[N′-(2-chlorobenzoyl)-hydrazino]-2-oxoethylamino]benzamidine trifluoroacetate], it took 0.336 µM to reach half-maximal inhibition in assay [1] (IC50). This lies in the sub-micromolar range.
